Reference: US10759803B2, “Asparagine endopeptidase (AEP) inhibitors for managing cancer and compositions related thereto” (priority 2014, dated 2020)

Legend:
[1] = target: CYP3A4 (Homo sapiens, UniProt P08684); experiment: CYP inhibition screening, CYP3A4-Midazolam; type: in vitro ADME
[2] = test system: CYP3A; experiment: CYP inhibition screening, CYP3A-Testosterone; type: in vitro ADME
[3] = target: CYP2C9 (Homo sapiens, UniProt P11712); experiment: CYP inhibition screening, CYP2C9; type: in vitro ADME
CYP2C9, sequence (P11712 whole entry): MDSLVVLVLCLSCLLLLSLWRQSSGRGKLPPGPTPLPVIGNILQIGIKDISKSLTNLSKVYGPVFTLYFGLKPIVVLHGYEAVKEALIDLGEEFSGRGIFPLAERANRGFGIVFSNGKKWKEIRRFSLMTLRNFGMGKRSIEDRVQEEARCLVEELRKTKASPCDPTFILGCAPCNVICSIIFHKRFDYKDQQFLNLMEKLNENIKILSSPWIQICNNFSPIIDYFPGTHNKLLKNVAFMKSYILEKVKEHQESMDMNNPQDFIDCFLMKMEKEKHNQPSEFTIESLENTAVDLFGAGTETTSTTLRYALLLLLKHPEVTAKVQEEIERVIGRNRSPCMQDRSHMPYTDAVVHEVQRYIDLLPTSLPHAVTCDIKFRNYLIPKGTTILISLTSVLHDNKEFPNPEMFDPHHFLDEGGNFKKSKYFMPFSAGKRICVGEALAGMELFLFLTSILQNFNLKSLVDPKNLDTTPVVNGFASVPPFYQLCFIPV

[4] = target: CYP2D6 (Homo sapiens, UniProt P10635); experiment: CYP inhibition screening, CYP2D6; type: in vitro ADME
CYP2D6, sequence (P10635 whole entry): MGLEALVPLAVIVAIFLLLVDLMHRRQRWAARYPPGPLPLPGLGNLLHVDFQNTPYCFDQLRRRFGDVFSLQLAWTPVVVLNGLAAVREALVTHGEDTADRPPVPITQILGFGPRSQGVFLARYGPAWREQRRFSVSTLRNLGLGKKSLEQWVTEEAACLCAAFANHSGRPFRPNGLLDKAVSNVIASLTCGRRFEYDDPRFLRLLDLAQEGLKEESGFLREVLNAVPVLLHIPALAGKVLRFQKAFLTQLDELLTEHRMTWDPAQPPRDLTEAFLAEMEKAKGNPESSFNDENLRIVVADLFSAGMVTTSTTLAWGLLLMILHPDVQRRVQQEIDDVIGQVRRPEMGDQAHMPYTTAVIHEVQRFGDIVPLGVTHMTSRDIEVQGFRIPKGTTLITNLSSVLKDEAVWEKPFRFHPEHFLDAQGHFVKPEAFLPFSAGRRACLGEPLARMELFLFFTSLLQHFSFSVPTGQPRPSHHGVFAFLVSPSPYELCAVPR

[5] = target: CYP2C19 (Homo sapiens, UniProt P33261); experiment: CYP inhibition screening, CYP2C19; type: in vitro ADME
CYP2C19, sequence (P33261 whole entry): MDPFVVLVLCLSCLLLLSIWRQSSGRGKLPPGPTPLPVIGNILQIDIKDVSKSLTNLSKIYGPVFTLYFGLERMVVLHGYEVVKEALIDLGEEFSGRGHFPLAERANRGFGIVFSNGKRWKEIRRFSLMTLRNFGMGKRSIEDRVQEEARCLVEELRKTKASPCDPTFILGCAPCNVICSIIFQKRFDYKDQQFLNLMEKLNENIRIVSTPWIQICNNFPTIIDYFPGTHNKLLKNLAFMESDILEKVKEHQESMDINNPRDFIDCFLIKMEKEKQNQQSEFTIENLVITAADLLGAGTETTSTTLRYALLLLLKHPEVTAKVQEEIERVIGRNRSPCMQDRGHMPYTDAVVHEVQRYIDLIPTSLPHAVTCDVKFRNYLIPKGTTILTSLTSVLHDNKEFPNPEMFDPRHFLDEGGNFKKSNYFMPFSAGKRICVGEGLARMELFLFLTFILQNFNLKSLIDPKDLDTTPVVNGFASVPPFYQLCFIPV

[6] = target: T1, CYP1A2 (Homo sapiens, UniProt P05177); experiment: CYP inhibition screening, CYP1A2; type: in vitro ADME
T1 sequence (P05177 1-516): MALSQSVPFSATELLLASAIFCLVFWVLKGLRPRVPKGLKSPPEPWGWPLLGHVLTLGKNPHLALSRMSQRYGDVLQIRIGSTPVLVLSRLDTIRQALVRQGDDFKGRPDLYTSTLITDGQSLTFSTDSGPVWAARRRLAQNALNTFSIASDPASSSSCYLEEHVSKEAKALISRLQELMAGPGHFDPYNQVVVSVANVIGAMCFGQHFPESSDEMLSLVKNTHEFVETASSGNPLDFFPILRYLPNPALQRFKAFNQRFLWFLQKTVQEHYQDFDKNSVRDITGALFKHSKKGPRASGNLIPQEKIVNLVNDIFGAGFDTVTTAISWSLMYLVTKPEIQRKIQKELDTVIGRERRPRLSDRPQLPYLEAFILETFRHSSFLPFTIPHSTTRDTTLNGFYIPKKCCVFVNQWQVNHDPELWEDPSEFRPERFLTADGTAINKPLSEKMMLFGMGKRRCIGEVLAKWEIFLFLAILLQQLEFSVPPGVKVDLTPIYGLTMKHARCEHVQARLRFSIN

[7] = test system: amyloid precursor protein (APP) cleavage; experiment: APP cleavage in OGD-treated primary cortical neurons; type: cell-based
[8] = test system: Caco-2 monolayer; experiment: Caco-2 monolayer permeability screen
Method: To explore the in vitro ADME profiles of the compounds, additional tests were conducted.

[9] = Human liver microsomal stability screen; settings: Human liver microsomes; for Mean Remaining Parent (with NADPH): 30 min

CYP3A4, sequence (P08684 whole entry): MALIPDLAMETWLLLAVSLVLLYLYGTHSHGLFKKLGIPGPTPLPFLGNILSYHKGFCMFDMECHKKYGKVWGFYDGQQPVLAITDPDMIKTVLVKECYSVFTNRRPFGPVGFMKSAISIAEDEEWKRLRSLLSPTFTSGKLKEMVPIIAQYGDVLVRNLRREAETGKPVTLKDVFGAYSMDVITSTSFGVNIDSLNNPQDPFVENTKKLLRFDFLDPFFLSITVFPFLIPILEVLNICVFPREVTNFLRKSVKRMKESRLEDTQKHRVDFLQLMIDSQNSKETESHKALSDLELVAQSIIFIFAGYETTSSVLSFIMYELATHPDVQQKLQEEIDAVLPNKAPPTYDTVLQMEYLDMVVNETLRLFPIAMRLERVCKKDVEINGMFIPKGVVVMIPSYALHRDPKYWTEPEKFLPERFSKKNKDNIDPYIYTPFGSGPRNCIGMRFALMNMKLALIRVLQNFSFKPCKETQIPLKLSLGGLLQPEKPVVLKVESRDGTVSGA

SMILES: Nc1ccc(N2CCOCC2)c2nonc12 [Compound 11]
- CYP3A4-Midazolam inhibition ([1]; 3 μM): 3.6%
- CYP3A4-Midazolam inhibition ([1]; 10 μM): 8.0%
- CYP3A-Testosterone inhibition ([2]; 3 μM): 4.1%
- CYP3A-Testosterone inhibition ([2]; 10 μM): 21.6%
- CYP2C9 inhibition ([3]; 3 μM): 4.3%
- CYP2C9 inhibition ([3]; 10 μM): 5.6%
- CYP2D6 inhibition ([4]; 3 μM): 7.8%
- CYP2D6 inhibition ([4]; 10 μM): 21.9%
- CYP2C19 inhibition ([5]; 3 μM): 4.4%
- CYP2C19 inhibition ([5]; 10 μM): 6.8%
- CYP1A2 inhibition ([6]; 3 μM): 13.1%
- CYP1A2 inhibition ([6]; 10 μM): 37.0%
- APP cleavage after OGD ([7]; 1 μM compound): blocked
- Caco-2 permeability in words [8]: highly permeable
- A −>B Papp ([8]; Table 1): 35.0 10^−6 cm · s^−1
- B −> A Papp ([8]; Table 1): 7.0 10^−6 cm · s^−1
- RE ([8]; Table 1): 0.2
- Mean Remaining Parent (NADPH-free) [9]: 93%
- Mean Remaining Parent (with NADPH) [9]: 76%

SMILES: Cn1c(=O)[nH]c(=O)c2c1nc(S)n2CC(O)COc1ccc(Cl)cc1 (stereo not shown) [Compound 38]
- CYP3A4-Midazolam inhibition ([1]; 3 μM): 7.3%
- CYP3A4-Midazolam inhibition ([1]; 10 μM): 10.4%
- CYP3A-Testosterone inhibition ([2]; 3 μM): −6.0%
- CYP3A-Testosterone inhibition ([2]; 10 μM): 2.4%
- CYP2C9 inhibition ([3]; 3 μM): 15.6%
- CYP2C9 inhibition ([3]; 10 μM): 17.1%
- CYP2D6 inhibition ([4]; 3 μM): −5.4%
- CYP2D6 inhibition ([4]; 10 μM): 0.9%
- CYP2C19 inhibition ([5]; 3 μM): −12.0%
- CYP2C19 inhibition ([5]; 10 μM): 9.5%
- CYP1A2 inhibition ([6]; 3 μM): −7.6%
- CYP1A2 inhibition ([6]; 10 μM): 10.5%
- APP cleavage after OGD ([7]; 0.1 μM compound): blocked
- A −>B Papp ([8]; Table 1): 1.1 10^−6 cm · s^−1
- B −> A Papp ([8]; Table 1): 20.3 10^−6 cm · s^−1
- RE ([8]; Table 1): 18.2
- A −>B Papp ([8]; table of derivatives): 1.1 10^−6 cm · s^−1
- B −> A Papp ([8]; table of derivatives): 20.3 10^−6 cm · s^−1
- RE ([8]; table of derivatives): 18.2
- Mean Remaining Parent (NADPH-free) [9]: 107%
- Mean Remaining Parent (with NADPH) [9]: 88%
